According to patent publication US7981871B2, “Modified macromolescules and associated methods of synthesis and use” (University of Utah Research Foundation, priority 2003, dated 2011):

Key:
Assay in all cases: Sensitivity to PI3K inhibitor and Taxol in 3-D culture (Carbylan-GSX hydrogels)
Assay type in all cases: cell-based, Human
CaCo-2 = tested on: CaCo-2
Method: (§1) Human breast cancer cell lines (MDA-MB-231 and MDA-MB-468), colon adenocarcinoma cell lines (Caco2, HCT116, and HCA7), and ovarian cancer cell (SK-OV-3) were obtained from American Type Culture Collections (ATCC) and maintained in RPMI 1640 medium (GIBCO) supplemented with 10 mM HEPES, 10% fetal bovine serum (Hyclone), 0.4 mM sodium pyruvate, and […], 100 U/ml penicillin, and 100 ug/ml streptomycin.
(§2) When reaching 80-90% confluence, the above cell lines were trypsinized with 0.25% trypsin containing 1 mM EDTA and suspended in 1.25% (w/v) Carbylan™-S and 3% (w/v) gelatin-DTPH in a 50:50 (v/v) ratio in serum-free RPMI medium (pH 7.4), and then 4% (w/v) solution of PEGDA in DPBS buffer was added to the Carbylan™-S/gelatin-DTPH solution at a ratio of 4:1 (Carbylan™-S :PEGDA, v:v) and mixed by vortexing for 30 second. The final concentration of cells in Carbylan™-GSX solution was 2.0×10^6/ml. Aliquots ([…]) of each reaction mixture loaded with cells were transferred by pipette into 24-well cell culture inserts (Coming incorporated, Coming, N.Y.) with 6.5 mm in diameter and […]. The cell loaded inserts were incubated in incubator (37° C. and 5% CO2) for two hours and then 2 ml of RPMI 1640 medium containing 10% FBS was added into each into each insert. The media were changed every two days. Two weeks after the initial culture, the media were removed from the inserts and changed with 10 mM of LY-294002 (Sigma) and 1 mg/ml of paclitaxel (Sigma) in RPMI 1640 medium containing 0.5% FBS. There were total eight inserts for each reagent each cell line. The media were also changed every two days. Two weeks after the media were changed to LY-294002 and paclitaxel containing media, the media were removed from the inserts and changed with 1.5 ml RPMI 1640 media containing 5% FBS and 15% (v/v) CellTiter 96 aqueous one solution cell proliferation assay (Promega, Madison, Wis.) and incubated in incubator (37° C. and 5% CO2) for three hours and then the reaction solution was transferred into 96-well plate ([…]) and the absorbance was read at 550 nm with an OPTI Max microplate reader (Molecular Devices). The inserts were rinsed twice with DPBS buffer and stained with FDA and PI at RT for 5 min and observed using a confocal laser scanning microscope (LSM 510, Carl Zeiss Microimaging, Inc., Thornwood, N.Y.).

HCA7 = settings: 10 mM LY-294002 or 1 mg/ml paclitaxel, two weeks
Method: as §1, §2

HCT116 = settings: 10 mM LY-294002 or 1 mg/ml paclitaxel, two weeks
Method: as §1, §2

MDA-MB-231 = MDA-MB-231 in Carbylan-GSX; 10 mM LY-294002 or 1 mg/ml paclitaxel; two weeks
Method: as §1, §2

MDA-MB-468 = MDA-MB-468 in Carbylan-GSX; 10 mM LY-294002 or 1 mg/ml paclitaxel; two weeks
Method: as §1, §2

SK-OV-3 = tested on: SK-OV-3
Method: as §1, §2

CC(=O)O[C@H]1C(=O)[C@@]2(C)[C@H]([C@H](OC(=O)c3ccccc3)[C@]3(O)C[C@H](OC(=O)[C@H](O)[C@@H](NC(=O)c4ccccc4)c4ccccc4)C(C)=C1C3(C)C)[C@]1(OC(C)=O)CO[C@@H]1C[C@@H]2O [paclitaxel]
proliferation (CellTiter 96, absorbance at 550 nm) (CaCo-2; CaCo-2 in Carbylan-GSX, 10 mM LY-294002 or 1 mg/ml paclitaxel, two weeks): inhibited
cell density in sECM hydrogels (FDA/PI staining) (CaCo-2; Caco-2, compared to cells cultured in normal medium): decreased
proliferation (CellTiter 96, absorbance at 550 nm) (HCA7): inhibited
proliferation (CellTiter 96, absorbance at 550 nm) (HCT116): inhibited
proliferation (CellTiter 96, absorbance at 550 nm) (MDA-MB-231): Neither LY294002 and paclitaxel showed any inhibition effects
proliferation (CellTiter 96, absorbance at 550 nm) (MDA-MB-468): inhibited
3-D morphology (FDA/PI staining) (SK-OV-3; SK-OV-3, compared to cells cultured in normal medium): no obvious difference
proliferation (CellTiter 96, absorbance at 550 nm) (SK-OV-3; SK-OV-3 in Carbylan-GSX, 10 mM LY-294002 or 1 mg/ml paclitaxel, two weeks): Neither LY294002 and paclitaxel showed any inhibition effects
